Test results reported in patent publication US20240393292A1, “ALLERGY ANTIGEN AND EPITOPE THEREOF” (HOYU CO., LTD., priority 2019, published 2024).

Test system: IgE antibodies from patients
Assay: Wheat epitope mapping (2): overlapping 10-amino-acid peptide fragments shifted by one amino acid
Assay type: binding, human
Conditions: sequence without X
Method in brief: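 Residual binding was banded as <30% none, 30–<50% poor, 50–<70% somewhat poor and ≥70% retained, relative to the parent overlapping sequence set to 100%. Values were chemiluminescent IgE signals from patient sera after subtracting secondary-antibody-only controls. The peptides were spot-synthesised 10-mers shifted by one amino acid.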

[1] = serum of patient P55 (child, general immediate type allergy to wheat)
[2] = serum of patient G1 (adult, general immediate type allergy to wheat)
[3] = serum of patient G6 (adult, general immediate type allergy to wheat)

2257 (SRLLRGIRN; REGION 1..9: note = epitope) [compound 2257]
Epitope sequence binding to IgE antibody, rank of the sequence (Key/Preferably/More preferably) [1]: Key

2258 (LRGIRNYRVA; REGION 1..10: note = epitope) [compound 2258]
Epitope sequence binding to IgE antibody, rank of the sequence (Key/Preferably/More preferably) [1]: Preferably

2259 (RNYRV; REGION 1..5: note = epitope) [compound 2259]
Epitope sequence binding to IgE antibody, rank of the sequence (Key/Preferably/More preferably) [1]: Key

2260 (SRLLR; REGION 1..5: note = epitope) [compound 2260]
Epitope sequence binding to IgE antibody, rank of the sequence (Key/Preferably/More preferably) [2]: Key

2261 (LLRGIRNYRV; REGION 1..10: note = epitope) [compound 2261]
Epitope sequence binding to IgE antibody, rank of the sequence (Key/Preferably/More preferably) [2]: Key

2262 (RNYRVAI; REGION 1..7: note = epitope) [compound 2262]
Epitope sequence binding to IgE antibody, rank of the sequence (Key/Preferably/More preferably) [2]: Key

2263 (SRLLR; REGION 1..5: note = epitope) [compound 2263]
Epitope sequence binding to IgE antibody, rank of the sequence (Key/Preferably/More preferably) [3]: Key

2264 (NYRVAI; REGION 1..6: note = epitope) [compound 2264]
Epitope sequence binding to IgE antibody, rank of the sequence (Key/Preferably/More preferably) [3]: Key

2266 (GGIDKRV; REGION 1..7: note = epitope) [compound 2266]
Epitope sequence binding to IgE antibody, rank of the sequence (Key/Preferably/More preferably) (serum of patient P5 (WDEIA)): Key

2267 (KRVIERFEK; REGION 1..9: note = epitope) [compound 2267]
Epitope sequence binding to IgE antibody, rank of the sequence (Key/Preferably/More preferably) (serum of patient P5 (WDEIA)): Preferably

2268 (ERFEK; REGION 1..5: note = epitope) [compound 2268]
Epitope sequence binding to IgE antibody, rank of the sequence (Key/Preferably/More preferably) (serum of patient P5 (WDEIA)): Key

2269 (LGGIDK; REGION 1..6: note = epitope) [compound 2269]
Epitope sequence binding to IgE antibody, rank of the sequence (Key/Preferably/More preferably) (serum of patient P7 (WDEIA)): Key

2270 (DKRVIERFEK; REGION 1..10: note = epitope) [compound 2270]
Epitope sequence binding to IgE antibody, rank of the sequence (Key/Preferably/More preferably) (serum of patient P7 (WDEIA)): Key

2271 (LGGIDKRV; REGION 1..8: note = epitope) [compound 2271]
Epitope sequence binding to IgE antibody, rank of the sequence (Key/Preferably/More preferably) (serum of patient P8 (WDEIA)): More preferably

2272 (GIDKRVIERF; REGION 1..10: note = epitope) [compound 2272]
Epitope sequence binding to IgE antibody, rank of the sequence (Key/Preferably/More preferably) (serum of patient P8 (WDEIA)): Preferably

2273 (GIDKRV; REGION 1..6: note = epitope) [compound 2273]
Epitope sequence binding to IgE antibody, rank of the sequence (Key/Preferably/More preferably) (serum of patient P8 (WDEIA)): Key

2274 (DKRVIERFEK; REGION 1..10: note = epitope) [compound 2274]
Epitope sequence binding to IgE antibody, rank of the sequence (Key/Preferably/More preferably) (serum of patient P8 (WDEIA)): Preferably

2275 (KRVIERFEK; REGION 1..9: note = epitope) [compound 2275]
Epitope sequence binding to IgE antibody, rank of the sequence (Key/Preferably/More preferably) (serum of patient P8 (WDEIA)): Key

2276 (GGIDK; REGION 1..5: note = epitope) [compound 2276]
Epitope sequence binding to IgE antibody, rank of the sequence (Key/Preferably/More preferably) (serum of patient P10 (WDEIA)): Key

2277 (DKRVIERFEK; REGION 1..10: note = epitope) [compound 2277]
Epitope sequence binding to IgE antibody, rank of the sequence (Key/Preferably/More preferably) (serum of patient P10 (WDEIA)): Key

2279 (LGGIDK; REGION 1..6: note = epitope) [compound 2279]
Epitope sequence binding to IgE antibody, rank of the sequence (Key/Preferably/More preferably) (serum of patient P14 (WDEIA)): Key

2280 (DKRVIERFEK; REGION 1..10: note = epitope) [compound 2280]
Epitope sequence binding to IgE antibody, rank of the sequence (Key/Preferably/More preferably) (serum of patient P14 (WDEIA)): Preferably

2282 (IDKRVIER; REGION 1..8: note = epitope) [compound 2282]
Epitope sequence binding to IgE antibody, rank of the sequence (Key/Preferably/More preferably) (serum of patient P18 (WDEIA)): Key

2283 (ERFEKE; REGION 1..6: note = epitope) [compound 2283]
Epitope sequence binding to IgE antibody, rank of the sequence (Key/Preferably/More preferably) (serum of patient P18 (WDEIA)): Key

2284 (LGGIDK; REGION 1..6: note = epitope) [compound 2284]
Epitope sequence binding to IgE antibody, rank of the sequence (Key/Preferably/More preferably) (serum of patient P26 (WDEIA)): Preferably

2285 (GIDK; REGION 1..4: note = epitope) [compound 2285]
Epitope sequence binding to IgE antibody, rank of the sequence (Key/Preferably/More preferably) (serum of patient P26 (WDEIA)): Key
